Source: US20240109873A1, “ANTAGONISTS OF THE MUSCARINIC ACETYLCHOLINE RECEPTOR M4” (Vanderbilt University, priority 2020, published 2024)

Molecular target: T1, human mAChR M4 (Homo sapiens, UniProt P08173)
T1 construct: expressed in transfected cells; host or cells: CHO-K1 (ATCC), co-transfected with chimeric G protein Gqi5
T1 sequence (P08173 1-479): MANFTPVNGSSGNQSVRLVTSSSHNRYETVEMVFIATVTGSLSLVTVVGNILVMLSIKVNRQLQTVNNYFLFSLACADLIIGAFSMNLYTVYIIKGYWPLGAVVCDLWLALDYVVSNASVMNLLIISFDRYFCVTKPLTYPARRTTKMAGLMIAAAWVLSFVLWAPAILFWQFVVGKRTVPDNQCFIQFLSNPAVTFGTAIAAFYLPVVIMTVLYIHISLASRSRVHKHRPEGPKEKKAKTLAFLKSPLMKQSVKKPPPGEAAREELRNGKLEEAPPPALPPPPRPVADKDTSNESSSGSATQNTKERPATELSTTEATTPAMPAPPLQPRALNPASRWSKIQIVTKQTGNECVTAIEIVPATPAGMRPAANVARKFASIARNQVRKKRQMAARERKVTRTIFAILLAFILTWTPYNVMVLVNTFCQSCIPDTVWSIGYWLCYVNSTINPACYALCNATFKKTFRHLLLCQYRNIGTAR
Assay: mAChR M4 cell-based functional assay (calcium flux, antagonism of EC80 acetylcholine response, M4/Gqi5/CHO-K1 cells)
Details: for IC50: decrease of the response elicited by an EC80 concentration of acetylcholine, CHO-K1 cells, Gqi5
Outline: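 CHO-K1 cells stably expressing human M4 with chimeric Gqi5, loaded with Fluo-4 AM; calcium flux read on FDSS. Compounds (10-point, 1:3 curves) added first, then EC20 acetylcholine at 143 s and EC80 at 268 s. IC50 from decrease of EC80 acetylcholine response, four-parameter logistic fit.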

IC50 [nM]	remaining activity at 30 µM (CHO-K1, % ACh maximum at 30 μM, read-out: Human M4 Emin) [%]	SMILES
3.1	–	[2H]C([2H])([C@H]1CCOC(C)(C)C1)N1C[C@H]2C[C@H](Nc3ccc(-c4cccnc4C(F)(F)F)nn3)C[C@H]2C1 (single isomer, unassigned) [Compound 61]
1.1	4	[2H]C([2H])([C@@H]1CCOC(C)(C)C1)N1C[C@H]2C[C@H](Nc3ccc(-c4cccnc4C(F)(F)F)nn3)C[C@H]2C1 [Compound 62, (3aR,5s,6aS)-2-(((R)-2,2-dimethyltetrahydro-2H-pyran-4-yl)methyl-d2)-N-(6-(2-(trifluoromethyl)pyridin-3-yl)pyridazin-3-yl)octahydrocyclopenta[c]pyrrol-5-amine]
